Experimental data taken from ChEMBL document CHEMBL3102755, “Diphenylpropane Derivatives as Agonist of PPAR Nuclear Receptors” (ACS Med Chem Lett, 2013).
pEC50: −log10 of the molar value. The source made the active and inactive calls. The calls are words filed in the database; no cut-off is given here.

How the values were obtained:
[1] = molecular target: T1, Peroxisome proliferator-activated receptor delta (Homo sapiens, UniProt Q03181); experiment: Agonist activity at human PPARdelta ligand binding domain expressed in monkey COS7 cells cotransfected with Gal4 by luciferase reporter gene assay; type: cell-based, COS-7
T1 sequence (Q03181 whole entry): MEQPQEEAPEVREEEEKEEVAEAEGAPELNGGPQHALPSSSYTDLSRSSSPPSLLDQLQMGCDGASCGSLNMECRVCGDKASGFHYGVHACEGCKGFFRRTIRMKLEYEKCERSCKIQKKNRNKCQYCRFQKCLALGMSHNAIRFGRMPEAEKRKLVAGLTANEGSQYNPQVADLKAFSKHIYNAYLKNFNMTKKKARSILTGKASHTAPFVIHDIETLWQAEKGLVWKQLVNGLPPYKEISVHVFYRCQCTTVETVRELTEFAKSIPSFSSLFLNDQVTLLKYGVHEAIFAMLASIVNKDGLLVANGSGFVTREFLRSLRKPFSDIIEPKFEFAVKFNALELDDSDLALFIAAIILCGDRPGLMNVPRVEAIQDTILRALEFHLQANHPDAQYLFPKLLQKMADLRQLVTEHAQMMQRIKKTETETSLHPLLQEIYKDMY

[2] = molecular target: T2, Peroxisome proliferator-activated receptor alpha (Homo sapiens, UniProt Q07869); experiment: Agonist activity at human PPARalpha ligand binding domain expressed in monkey COS7 cells cotransfected with Gal4 by luciferase reporter gene assay; type: cell-based, COS-7
T2 sequence (Q07869 whole entry): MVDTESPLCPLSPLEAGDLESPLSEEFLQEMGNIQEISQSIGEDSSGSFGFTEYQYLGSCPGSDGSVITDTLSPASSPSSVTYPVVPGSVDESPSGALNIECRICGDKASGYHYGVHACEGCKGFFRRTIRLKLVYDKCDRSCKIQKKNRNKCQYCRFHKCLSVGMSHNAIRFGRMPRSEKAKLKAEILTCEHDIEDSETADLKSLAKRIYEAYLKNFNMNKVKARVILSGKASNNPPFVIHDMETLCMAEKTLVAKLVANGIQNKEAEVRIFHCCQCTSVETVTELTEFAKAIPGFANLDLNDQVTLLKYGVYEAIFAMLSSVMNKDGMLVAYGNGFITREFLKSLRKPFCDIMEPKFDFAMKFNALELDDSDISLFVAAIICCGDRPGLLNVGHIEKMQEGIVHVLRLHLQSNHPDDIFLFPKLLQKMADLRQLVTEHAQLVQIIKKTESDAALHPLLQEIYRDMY

[3] = molecular target: T3, Peroxisome proliferator-activated receptor gamma (Homo sapiens, UniProt P37231); experiment: Agonist activity at human PPARgamma ligand binding domain expressed in monkey COS7 cells cotransfected with Gal4 by luciferase reporter gene assay; type: cell-based, COS-7
T3 sequence (P37231 whole entry): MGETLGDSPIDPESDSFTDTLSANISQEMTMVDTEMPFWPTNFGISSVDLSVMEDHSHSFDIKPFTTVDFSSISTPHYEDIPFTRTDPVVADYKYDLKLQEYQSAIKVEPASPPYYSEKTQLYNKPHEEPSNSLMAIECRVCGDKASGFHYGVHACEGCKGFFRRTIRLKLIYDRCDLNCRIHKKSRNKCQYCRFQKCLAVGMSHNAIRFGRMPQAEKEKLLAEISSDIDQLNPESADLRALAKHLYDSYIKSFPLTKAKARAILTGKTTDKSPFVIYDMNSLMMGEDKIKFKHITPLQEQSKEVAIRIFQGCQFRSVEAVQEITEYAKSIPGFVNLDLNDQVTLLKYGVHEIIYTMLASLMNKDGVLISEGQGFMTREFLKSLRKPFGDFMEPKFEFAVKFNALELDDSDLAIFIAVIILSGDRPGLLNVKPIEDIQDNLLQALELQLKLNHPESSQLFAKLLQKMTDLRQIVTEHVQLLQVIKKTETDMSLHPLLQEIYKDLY

Mus musculus [4] = experiment: Antialzheimer activity in APPPS1 transgenic C57BL/6J mouse model assessed as decrease in beta-amyloid accumulation in brain at 1 to 10 mg/kg; type: functional, organism-based
Mus musculus [5] = experiment: Cognitive enhancing effect in APPPS1 transgenic C57BL/6J mouse model at 1 to 10 mg/kg for 60 days by Morris-Water maze assay; type: functional, organism-based
[6] = Ratio of AUC (0 to 24 hrs) in brain to plasma in mouse at 2 mg/kg, iv and 10 mg/kg, po; type: ADME, organism-based; conditions: read-out: BPR

## Cc1cc(C2CC2C(OC(=O)c2ccccc2)c2ccc(OC(F)(F)F)cc2)cc(C)c1OC(C)(C)C(=O)O (single isomer, unassigned; diastereomer 1)
[1]
  pEC50: 7.10
[2]
  pEC50: 7.68
[3]
  pEC50: 6.94

## COC(c1ccc(OC(F)(F)F)cc1)C1CC1c1cc(C)c(OC(C)(C)C(=O)O)c(C)c1 (single isomer, unassigned; enantiomer 1)
Mus musculus [4]
  Activity: Active
Mus musculus [5]
  Activity: Active
[3]; cos-7
  pEC50: 7.80
[6]
  Kp: 0.37

## Cc1cc(C2CC2C(OC(=O)c2ccccc2)c2ccc(OC(F)(F)F)cc2)cc(C)c1OC(C)(C)C(=O)O (single isomer, unassigned; diastereomer 2)
[1]
  pEC50: 6.91
[2]
  pEC50: 7.00
[3]
  pEC50: 7.64
